# Experiments:
# [1] = molecular target: Protein phosphatase 3 catalytic subunit alpha (Homo sapiens, UniProt Q08209); set-up: species or system Escherichia coli;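 note: inhibition of calcineurin (PP2B) enzyme activity, measured with DiFMUP as the substrate; in other assays of this panel Not Active means under 50% inhibition at 10 µM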
# [2] = molecular target: Epidermal growth factor receptor (Homo sapiens, UniProt P00533); assay: DRUGMATRIX: Protein Tyrosine Kinase, EGF Receptor enzyme inhibition (substrate: Poly(Glu:Tyr)); assay type: cell-based, Insect cells; settings: Not Active = under 50% inhibition at 10 µM
# [3] = molecular target: T1, Alpha-2C adrenergic receptor (Homo sapiens, UniProt P18825); assay: DRUGMATRIX: Adrenergic Alpha-2C radioligand binding (ligand: [3H] MK-912); assay type: cell membranes, Sf9, Membrane
# T1 sequence (P18825 whole entry): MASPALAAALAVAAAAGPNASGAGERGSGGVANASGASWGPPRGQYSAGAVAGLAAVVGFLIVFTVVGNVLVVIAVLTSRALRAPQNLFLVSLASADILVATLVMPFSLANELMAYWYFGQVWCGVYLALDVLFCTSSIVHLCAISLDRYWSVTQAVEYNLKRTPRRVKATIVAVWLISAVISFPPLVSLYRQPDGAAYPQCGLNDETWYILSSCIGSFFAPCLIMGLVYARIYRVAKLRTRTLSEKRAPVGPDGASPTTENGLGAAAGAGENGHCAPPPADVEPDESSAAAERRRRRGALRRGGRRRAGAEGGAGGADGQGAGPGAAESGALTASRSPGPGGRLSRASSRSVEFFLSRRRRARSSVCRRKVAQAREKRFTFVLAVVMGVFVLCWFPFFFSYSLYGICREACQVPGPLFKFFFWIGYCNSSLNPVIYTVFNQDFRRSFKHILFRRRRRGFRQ
# [4] = molecular target: Mitogen-activated protein kinase 14 (Homo sapiens, UniProt Q16539); set-up: species or system Escherichia coli;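 note: inhibition of p38alpha enzyme activity in a biochemical kinase assay, with myelin basic protein serving as substrate; in other assays of this panel Not Active means under 50% inhibition at 10 µM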
# Mitogen-activated protein kinase 14, sequence (Q16539 whole entry): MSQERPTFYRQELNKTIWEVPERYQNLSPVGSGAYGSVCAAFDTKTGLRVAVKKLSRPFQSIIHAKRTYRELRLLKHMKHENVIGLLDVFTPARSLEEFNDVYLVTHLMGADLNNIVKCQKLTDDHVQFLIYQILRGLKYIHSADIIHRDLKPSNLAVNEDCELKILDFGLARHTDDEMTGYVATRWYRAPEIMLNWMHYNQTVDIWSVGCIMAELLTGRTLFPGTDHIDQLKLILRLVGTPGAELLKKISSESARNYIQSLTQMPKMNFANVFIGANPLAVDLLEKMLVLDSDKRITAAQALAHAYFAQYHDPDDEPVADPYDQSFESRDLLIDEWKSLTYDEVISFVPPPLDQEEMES
# [5] = molecular target: T2, Nitric oxide synthase, inducible (Mus musculus, UniProt P29477); set-up: species or system Escherichia coli;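 note: inhibition of iNOS enzyme activity measured with L-arginine as substrate; in other assays of this panel Not Active means under 50% inhibition at 10 µM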
# T2 sequence (P29477 whole entry): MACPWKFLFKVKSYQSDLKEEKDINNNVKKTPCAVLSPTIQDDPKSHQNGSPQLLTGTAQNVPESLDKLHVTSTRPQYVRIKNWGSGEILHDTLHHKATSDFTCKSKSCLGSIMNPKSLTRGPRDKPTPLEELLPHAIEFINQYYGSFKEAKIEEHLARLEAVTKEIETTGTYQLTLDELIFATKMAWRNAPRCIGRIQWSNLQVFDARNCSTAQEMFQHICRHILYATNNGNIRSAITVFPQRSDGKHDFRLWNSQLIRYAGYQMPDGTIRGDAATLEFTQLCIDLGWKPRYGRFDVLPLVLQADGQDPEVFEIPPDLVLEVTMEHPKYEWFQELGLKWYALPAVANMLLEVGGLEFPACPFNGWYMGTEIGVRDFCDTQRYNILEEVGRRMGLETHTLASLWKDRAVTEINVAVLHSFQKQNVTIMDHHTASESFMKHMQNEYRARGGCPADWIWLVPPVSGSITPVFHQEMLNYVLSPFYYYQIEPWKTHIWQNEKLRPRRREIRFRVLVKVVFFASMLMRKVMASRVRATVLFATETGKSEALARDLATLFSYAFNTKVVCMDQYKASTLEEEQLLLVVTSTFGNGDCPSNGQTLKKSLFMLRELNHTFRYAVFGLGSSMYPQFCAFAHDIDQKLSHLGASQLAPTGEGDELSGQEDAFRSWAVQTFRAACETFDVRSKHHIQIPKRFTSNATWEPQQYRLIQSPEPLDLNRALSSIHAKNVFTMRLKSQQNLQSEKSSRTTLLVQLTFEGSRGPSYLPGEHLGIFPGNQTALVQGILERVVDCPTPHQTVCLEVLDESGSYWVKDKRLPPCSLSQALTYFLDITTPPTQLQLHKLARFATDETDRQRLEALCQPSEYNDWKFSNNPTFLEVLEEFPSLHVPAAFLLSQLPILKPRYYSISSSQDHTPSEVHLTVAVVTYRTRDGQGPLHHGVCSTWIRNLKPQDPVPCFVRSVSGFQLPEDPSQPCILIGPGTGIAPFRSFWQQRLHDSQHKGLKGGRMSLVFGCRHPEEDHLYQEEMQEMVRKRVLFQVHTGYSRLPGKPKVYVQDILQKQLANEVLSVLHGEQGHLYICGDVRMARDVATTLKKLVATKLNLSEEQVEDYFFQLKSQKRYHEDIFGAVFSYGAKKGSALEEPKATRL
# [6] = molecular target: Voltage-gated inwardly rectifying potassium channel KCNH2 (Homo sapiens, UniProt Q12809); settings: hek293; note: in other assays of this panel Not Active means under 50% inhibition at 10 µM
# Voltage-gated inwardly rectifying potassium channel KCNH2, sequence (Q12809 whole entry): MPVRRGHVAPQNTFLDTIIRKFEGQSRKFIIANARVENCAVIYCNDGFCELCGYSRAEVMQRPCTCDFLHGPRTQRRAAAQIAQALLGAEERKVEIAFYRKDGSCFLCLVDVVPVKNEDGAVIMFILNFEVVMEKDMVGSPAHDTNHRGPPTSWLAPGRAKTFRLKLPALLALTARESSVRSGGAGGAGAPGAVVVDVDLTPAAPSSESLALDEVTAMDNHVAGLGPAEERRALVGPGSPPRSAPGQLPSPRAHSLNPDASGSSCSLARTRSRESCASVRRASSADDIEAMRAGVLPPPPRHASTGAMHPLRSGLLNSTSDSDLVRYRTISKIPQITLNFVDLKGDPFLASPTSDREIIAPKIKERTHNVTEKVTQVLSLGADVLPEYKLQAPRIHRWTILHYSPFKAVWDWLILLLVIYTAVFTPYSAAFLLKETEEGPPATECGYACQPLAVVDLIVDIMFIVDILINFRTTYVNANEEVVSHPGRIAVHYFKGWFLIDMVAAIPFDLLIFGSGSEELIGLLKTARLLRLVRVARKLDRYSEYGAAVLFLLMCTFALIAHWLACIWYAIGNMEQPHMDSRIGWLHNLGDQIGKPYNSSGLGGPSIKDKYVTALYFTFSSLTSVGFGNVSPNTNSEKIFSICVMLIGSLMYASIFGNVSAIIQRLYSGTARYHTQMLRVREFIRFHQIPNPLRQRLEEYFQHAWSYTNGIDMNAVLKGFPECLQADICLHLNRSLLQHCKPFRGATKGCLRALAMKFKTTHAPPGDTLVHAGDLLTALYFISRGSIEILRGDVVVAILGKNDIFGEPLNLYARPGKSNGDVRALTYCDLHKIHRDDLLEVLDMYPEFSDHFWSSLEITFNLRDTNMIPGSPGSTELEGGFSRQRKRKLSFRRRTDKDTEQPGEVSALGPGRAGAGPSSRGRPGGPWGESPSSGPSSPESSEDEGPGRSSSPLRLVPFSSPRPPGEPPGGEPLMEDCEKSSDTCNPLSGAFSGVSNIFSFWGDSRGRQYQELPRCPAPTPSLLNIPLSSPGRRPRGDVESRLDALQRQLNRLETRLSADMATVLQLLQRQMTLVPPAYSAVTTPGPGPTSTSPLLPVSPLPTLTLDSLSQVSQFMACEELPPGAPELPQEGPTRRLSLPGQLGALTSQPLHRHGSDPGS
# [7] = molecular target: Beta-2 adrenergic receptor (Homo sapiens, UniProt P07550); assay: DRUGMATRIX: Adrenergic beta2 radioligand binding (ligand: [3H] CGP-12177); assay type: cell membranes, CHO, Membrane; settings: cho; Not Active = under 50% inhibition at 10 µM
Molecule,IC50 [1],IC50 ([2]; insect cells),IC50 ([3]; sf9),IC50 [4],IC50 [5],IC50 [6],Ki [6],IC50 [7],IC50 ([2]; read-out: IC50),IC50 ([3]; read-out: IC50),Ki ([3]; read-out: Ki),Ki [1],"IC50 ([2]; insect cells, read-out: IC50)",Ki ([3]; sf9),Ki [4],Ki [5],Ki [7]
CC(=N)S [THIOACETAMIDE],Not Active,Not Active,Not Active,Not Active,Not Active,Not Active,Not Active,Not Active,,,,,,,,,
O=C1C[C@@H]2OCC=C3CN4CC[C@]56c7ccccc7N1[C@H]5[C@H]2[C@H]3C[C@H]46 [STRYCHNINE],Not Active,Not Active,Not Active,Not Active,Not Active,Not Active,Not Active,Not Active,,,,,,,,,
Nc1ccc(S(=O)(=O)NC(=O)c2ccccc2)cc1 [SULFABENZAMIDE],Not Active,Not Active,Not Active,Not Active,Not Active,Not Active,Not Active,Not Active,,,,,,,,,
CC(=O)OCC(COC(C)=O)OC(C)=O [TRIACETIN],Not Active,Not Active,Not Active,Not Active,Not Active,Not Active,Not Active,Not Active,,,,,,,,,
CCCCC(=O)N(Cc1ccc(-c2ccccc2-c2nnn[nH]2)cc1)[C@H](C(=O)O)C(C)C,Not Active,Not Active,Not Active,Not Active,Not Active,Not Active,Not Active,Not Active,,,,,,,,,
OCCOCCN1CCN(C2=Nc3ccccc3Sc3ccccc32)CC1 [QUETIAPINE],Not Active,Not Active,,Not Active,Not Active,,,Not Active,,,,,,,,,
CC1CCC(NC(=O)N(CCCl)N=O)CC1 (stereo unspecified) [SEMUSTINE],Not Active,Not Active,Not Active,Not Active,Not Active,Not Active,Not Active,Not Active,,,,,,,,,
Oc1ccc2c3c1O[C@H]1[C@@H](O)CC[C@@]4(O)[C@@H](C2)N(CC2CCC2)CC[C@]314 [NALBUPHINE],Not Active,Not Active,Not Active,Not Active,Not Active,Not Active,Not Active,Not Active,,,,,,,,,
Clc1ccc(COC(Cn2ccnc2)c2ccc(Cl)cc2Cl)c(Cl)c1 (stereo unspecified) [MICONAZOLE],Not Active,,Not Active,Not Active,Not Active,Not Active,Not Active,Not Active,29.3 µM,,,,,,,,
"O=C(O)CCCCC1CCSS1 (stereo not drawn) [LIPOIC ACID, ALPHA]",Not Active,Not Active,Not Active,Not Active,Not Active,Not Active,Not Active,Not Active,,,,,,,,,
CCCCCCCCNC(C)C(O)c1ccc(SC(C)C)cc1 (stereo unspecified) [SULOCTIDIL],Not Active,,,Not Active,Not Active,Not Active,Not Active,Not Active,0.794 µM,3.45 µM,0.501 µM,,,,,,
COC(=O)[C@H]1[C@H]2C[C@@H]3c4[nH]c5cc(OC)ccc5c4CCN3C[C@H]2C[C@@H](OC(=O)c2cc(OC)c(OC)c(OC)c2)[C@@H]1OC [RESERPINE],Not Active,Not Active,Not Active,Not Active,Not Active,Not Active,Not Active,Not Active,,,,,,,,,
O=c1[nH]c(=O)n(C2CCCO2)cc1F (stereo unspecified) [TEGAFUR],Not Active,Not Active,Not Active,Not Active,Not Active,Not Active,Not Active,Not Active,,,,,,,,,
CC(C)NC[C@H](O)COc1cccc2ccccc12 [LEVOPROPRANOLOL],Not Active,Not Active,Not Active,Not Active,Not Active,Not Active,Not Active,,,,,,,,,,
CN1[C@@H]2CC[C@H]1C[C@@H](OC(c1ccccc1)c1ccccc1)C2 [BENZTROPINE],Not Active,Not Active,,Not Active,Not Active,Not Active,Not Active,Not Active,,,,,,,,,
Cc1ccc(C(=O)c2ccc(CC(=O)O)n2C)cc1 [TOLMETIN],Not Active,Not Active,Not Active,Not Active,Not Active,Not Active,Not Active,Not Active,,,,,,,,,
C[S+]([O-])c1ccc(-c2nc(-c3ccncc3)c(-c3ccc(F)cc3)[nH]2)cc1 (stereo unspecified) [SB-203580],Not Active,,Not Active,,Not Active,,,Not Active,,,,,,,,,
CN1CCN(C2=Nc3cc(Cl)ccc3Nc3ccccc32)CC1 [CLOZAPINE],Not Active,Not Active,,Not Active,Not Active,,,Not Active,,,,,,,,,
C[C@]12C=CC(=O)C=C1CC[C@@H]1[C@@H]2C(=O)C[C@@]2(C)[C@H]1CC[C@]2(O)C(=O)CO [PREDNISONE],Not Active,Not Active,Not Active,Not Active,Not Active,Not Active,Not Active,Not Active,,,,,,,,,
CC(C)NC[C@@H](O)COc1cccc2ccccc12 [DEXPROPRANOLOL],Not Active,Not Active,Not Active,Not Active,Not Active,Not Active,Not Active,,,,,,,,,,
CN1CCN(CCCN2c3ccccc3Sc3ccc(C(F)(F)F)cc32)CC1 [TRIFLUOPERAZINE],Not Active,Not Active,Not Active,Not Active,Not Active,,,Not Active,,,,,,,,,
O=C(O)COc1ccc(C(=O)c2cccs2)c(Cl)c1Cl,Not Active,Not Active,Not Active,Not Active,Not Active,Not Active,Not Active,Not Active,,,,,,,,,
C[N+](C)(C)CCOC(=O)CCC(=O)OCC[N+](C)(C)C.[Cl-].[Cl-] [SUCCINYLCHOLINE CHLORIDE],Not Active,Not Active,Not Active,Not Active,Not Active,Not Active,Not Active,Not Active,,,,,,,,,
TRANSPLATIN,Not Active,,Not Active,Not Active,Not Active,Not Active,Not Active,Not Active,,,,Not Active,1.06 µM,Not Active,Not Active,Not Active,Not Active
C[C@@](Cc1ccc(O)c(O)c1)(NN)C(=O)O.O [CARBIDOPA],Not Active,Not Active,Not Active,Not Active,Not Active,Not Active,Not Active,Not Active,,,,,,,,,

# Source: ChEMBL document CHEMBL1909046, “DrugMatrix in vitro pharmacology data”
